Results reported in patent US9427415B2, “Methods and compositions for modifying sensorial perception” (The Procter & Gamble Company, priority 2014, dated 2016).
Counter-ions that a name gives are not always drawn. Like-named read-outs stand apart in the source and are kept apart here.

Tests used:
[1] = tested on: TRPA1V1; assay: Intracellular calcium (Fluo-4, FLIPR) activation of TRPA1V1 cells (co-expressing TRPA1 and TRPV1) by GRAS compounds; assay type: cell-based, human; settings: relative to AITC 30 μM;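 further: HEK293 cells co-expressing TRPA1 and TRPV1, fluorescence read at 488/514 nm after baseline subtraction, recorded every 2 s over 10 min, ionomycin 10 µM and buffer as controls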
[2] = target: T1, human TRPA1 (Homo sapiens, UniProt O75762, K186N/R3C/R58T); assay: Intracellular calcium (Fluo-4, FLIPR) activation of TRPA1 cells by GRAS compounds; assay type: cell-based; settings: relative to AITC 30 μM; for activation at 1000 µM / A1 activation, % of agonist value: 1 mM; for activation at 1000 µM / activation at 100 µM: read-out: A1 activation, % of agonist value;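 on all read-outs here: TRPA1-expressing cells, fluorescence read on a FLIPR Tetra (ex 488 nm, em 514 nm) every 2 s for 10 min after compound addition, baseline subtracted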
T1 construct: expressed in transfected cells; pcDNA3 control cells
T1 sequence (O75762 whole entry R3C/R58T/K186N): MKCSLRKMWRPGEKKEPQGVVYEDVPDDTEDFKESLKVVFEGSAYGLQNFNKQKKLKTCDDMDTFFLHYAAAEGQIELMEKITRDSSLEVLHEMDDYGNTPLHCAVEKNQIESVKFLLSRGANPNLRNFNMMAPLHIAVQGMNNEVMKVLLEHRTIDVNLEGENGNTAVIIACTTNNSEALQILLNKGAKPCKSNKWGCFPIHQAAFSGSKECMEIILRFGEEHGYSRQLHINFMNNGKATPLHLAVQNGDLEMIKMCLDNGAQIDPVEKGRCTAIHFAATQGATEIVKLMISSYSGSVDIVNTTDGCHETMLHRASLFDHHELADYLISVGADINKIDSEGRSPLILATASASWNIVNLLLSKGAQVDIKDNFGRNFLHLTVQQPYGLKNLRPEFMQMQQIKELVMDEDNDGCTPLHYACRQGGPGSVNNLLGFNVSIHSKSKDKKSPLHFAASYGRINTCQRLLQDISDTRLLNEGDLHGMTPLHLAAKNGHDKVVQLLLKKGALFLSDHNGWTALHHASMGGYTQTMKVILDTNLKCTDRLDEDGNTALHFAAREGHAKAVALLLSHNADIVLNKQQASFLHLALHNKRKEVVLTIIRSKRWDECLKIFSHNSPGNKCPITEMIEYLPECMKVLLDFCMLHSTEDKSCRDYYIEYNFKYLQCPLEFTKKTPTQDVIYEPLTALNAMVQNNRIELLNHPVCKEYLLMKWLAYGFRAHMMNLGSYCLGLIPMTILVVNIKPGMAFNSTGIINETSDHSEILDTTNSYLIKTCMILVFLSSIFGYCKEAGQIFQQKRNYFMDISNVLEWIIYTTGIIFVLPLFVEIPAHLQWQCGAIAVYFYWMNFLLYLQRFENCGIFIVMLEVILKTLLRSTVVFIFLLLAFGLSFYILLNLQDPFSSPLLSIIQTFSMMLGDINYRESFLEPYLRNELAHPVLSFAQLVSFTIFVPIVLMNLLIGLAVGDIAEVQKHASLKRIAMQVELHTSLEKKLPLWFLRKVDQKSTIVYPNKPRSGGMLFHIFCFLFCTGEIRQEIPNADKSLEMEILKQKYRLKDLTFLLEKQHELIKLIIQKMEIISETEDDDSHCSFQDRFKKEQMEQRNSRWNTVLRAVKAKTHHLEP

**Q.** `C=C(C)CCC[C@H](C)CCO` [Rhodinol] was tested. Which “A1V1 activation, % of agonist value” ([1]; Table 1(d), 1 mM) did it give?
**A.** Its value is 78.75%.

**Q.** And the activation at 1000 µM ([2]; Table 1(d))?
**A.** The activation at 1000 µM was 116%.

**Q.** Which results are given for `C=C(C)CCCC(C)CCOC(C)=O` (stereo not drawn) [Rhodinyl acetate]?
**A.** A1V1 activation, % of agonist value ([1]; Table 1(c), 1 mM): 89.69%; A1 activation, % of agonist value ([2]; Table 1(c)): 89.06%

**Q.** With `C=C(C)CCC[C@H](C)CCOC(=O)CC(C)C` [Rhodinyl isovalerate] as the compound, how does the “A1V1 activation, % of agonist value” ([1]; Table 1(c), 1 mM) read?
**A.** Its value is 48.29%.

**Q.** What about the “A1 activation, % of agonist value” ([2]; Table 1(c)) of the same compound?
**A.** Its value is 54.92%.

**Q.** With `C=C(C)CCC[C@H](C)CCOC(=O)CC` [Rhodinyl propionate] as the compound, how does the “A1V1 activation, % of agonist value” ([1]; Table 1(c), 1 mM) read?
**A.** Its value is 86.44%.

**Q.** What about the “A1 activation, % of agonist value” ([2]; Table 1(c)) of the same compound?
**A.** Its value is 75.56%.

**Q.** Which “A1V1 activation, % of agonist value” ([1]; Table 1(c), 1 mM) does the source give for `CC1=C(C=O)C(C)(C)CC=C1` [Safranal] here?
**A.** The value was 74.5%.

**Q.** And the “A1 activation, % of agonist value” ([2]; Table 1(c))?
**A.** The value was 73%.

**Q.** How did the “A1V1 activation, % of agonist value” ([1]; Table 1(c), 1 mM) turn out when `O=Cc1ccccc1O` [Salicylaldehyde] was run?
**A.** Its value is 65.6%.

**Q.** What about the activation at 1000 µM ([2]; Table 1(c)) of the same compound?
**A.** The activation at 1000 µM was 66.9%.

**Q.** With `Cc1c[nH]c2ccccc12` [Skatole] as the compound, how does the “A1V1 activation, % of agonist value” ([1]; Table 1(c), 100 μM (*)) read?
**A.** Its value is 71.4%.

**Q.** What about the “A1V1 activation, % of agonist value” ([1]; Table 1(c), 1 mM) of the same compound?
**A.** Its value is 102.9%.

**Q.** And the activation at 100 µM ([2]; Table 1(c))?
**A.** The activation at 100 µM was 66.2%.

**Q.** And the activation at 1000 µM ([2]; Table 1(c))?
**A.** Its activation at 1000 µM is 116%.

**Q.** Which “A1V1 activation, % of agonist value” ([1]; Table 1(c), 1 mM) does the source give for `OC[C@H]1O[C@@](CO)(O[C@H]2O[C@H](CO)[C@@H](O)[C@H](O)[C@H]2O)[C@@H](O)[C@@H]1O` [Sucrose] here?
**A.** Its value is 80.86%.

**Q.** And the activation at 1000 µM ([2]; Table 1(c))?
**A.** The activation at 1000 µM was 84.1%.

**Q.** With `CC1=CCCC(C)(C)C12CCC(C)O2` (stereo not drawn) [Theaspirane] as the compound, how does the “A1V1 activation, % of agonist value” ([1]; Table 1(c), 1 mM) read?
**A.** Its value is 84%.

**Q.** And the “A1 activation, % of agonist value” ([2]; Table 1(c))?
**A.** Its value is 99%.

**Q.** Which results are given for `CC/C=C/C=O` [Trans-2-Pentenal]?
**A.** A1V1 activation, % of agonist value ([1]; Table 1(c), 1 mM): 68.62%; activation at 1000 µM ([2]; Table 1(c)): 80.9%

**Q.** For `CCCCCCCCC/C=C/C=O` [Trans-2-dodecenal], which “A1V1 activation, % of agonist value” ([1]; Table 1(c), 100 μM (*)) is on record?
**A.** The value was 66%.

**Q.** What about the activation at 100 µM ([2]; Table 1(c)) of the same compound?
**A.** Its activation at 100 µM is 79.1%.

**Q.** How did the “A1V1 activation, % of agonist value” ([1]; Table 1(e), 1 mM) turn out when `COc1ccc(/C=C/C=O)cc1` [Trans-p-methoxy cinnamaldehyde] was run?
**A.** Its value is 75.99%.

**Q.** What about the activation at 1000 µM ([2]; Table 1(e)) of the same compound?
**A.** The activation at 1000 µM was 58.8%.

**Q.** What does the source list for `CC1=CC(C)C(C=O)CC1` (stereo not drawn) [Trivertal]?
**A.** A1V1 activation, % of agonist value ([1]; Table 1(c), 1 mM): 36.46%; A1 activation, % of agonist value ([2]; Table 1(c)): 35.43%

**Q.** `C=C(C)[C@@H]1CCC2=CCC[C@@H](C)[C@]2(C)C1` [Valencene] was tested. Which “A1V1 activation, % of agonist value” ([1]; Table 1(c), 1 mM) did it give?
**A.** Its value is 66.32%.

**Q.** What about the “A1 activation, % of agonist value” ([2]; Table 1(c)) of the same compound?
**A.** The value was 61.97%.

**Q.** How did the “A1V1 activation, % of agonist value” ([1]; Table 1(c), 1 mM) turn out when `COc1ccc(C=O)cc1OC` [Veratraldehyde] was run?
**A.** Its value is 69.76%.

**Q.** What about the activation at 1000 µM ([2]; Table 1(c)) of the same compound?
**A.** Its activation at 1000 µM is 73.8%.

**Q.** For `CCCCCC(C=O)=Cc1ccccc1` [alpha-Amylcinnamaldehyde], which “A1V1 activation, % of agonist value” ([1]; Table 1(c), 1 mM) is on record?
**A.** Its value is 82.7%.

**Q.** And the activation at 1000 µM ([2]; Table 1(c))?
**A.** Its activation at 1000 µM is 86.6%.

**Q.** Which “A1V1 activation, % of agonist value” ([1]; Table 1(c), 1 mM) does the source give for `CC1=CCC(C(C)(C)OC=O)CC1` (stereo not drawn) [alpha-Terpinyl formate] here?
**A.** Its value is 71%.

**Q.** What about the “A1 activation, % of agonist value” ([2]; Table 1(c)) of the same compound?
**A.** The value was 82.2%.

**Q.** What does the source list for `C=C1CC/C=C(\C)CC[C@@H]2[C@@H]1CC2(C)C` [beta-Caryophyllene]?
**A.** A1V1 activation, % of agonist value ([1]; Table 1(d), 1 mM): 103.8%; activation at 1000 µM ([2]; Table 1(d)): 134%

**Q.** `C=CC(C)=CCC=C(C)C` [beta-Ocimene] was tested. Which “A1V1 activation, % of agonist value” ([1]; Table 1(c), 1 mM) did it give?
**A.** Its value is 92%.

**Q.** And the activation at 1000 µM ([2]; Table 1(c))?
**A.** The activation at 1000 µM was 112%.

**Q.** What does the source list for `CC/C=C\CCOC(=O)C/C=C\CC` [cis-3-Hexenyl cis-3-hexenoate]?
**A.** A1V1 activation, % of agonist value ([1]; Table 1(c), 1 mM): 97.4%; activation at 1000 µM ([2]; Table 1(c)): 107%

**Q.** `CC/C=C\CCOC(=O)CC(C)C` [cis-3-Hexenyl isovalerate] was tested. Which “A1V1 activation, % of agonist value” ([1]; Table 1(d), 1 mM) did it give?
**A.** The value was 51.6%.

**Q.** What about the activation at 1000 µM ([2]; Table 1(d)) of the same compound?
**A.** The activation at 1000 µM was 71.7%.

**Q.** For `CC/C=C\CCCCC=O` [cis-6-Nonenal], which “A1V1 activation, % of agonist value” ([1]; Table 1(c), 1 mM) is on record?
**A.** Its value is 93%.

**Q.** And the activation at 1000 µM ([2]; Table 1(c))?
**A.** Its activation at 1000 µM is 108%.

**Q.** Which “A1V1 activation, % of agonist value” ([1]; Table 1(d), 1 mM) does the source give for `C=CC(O)CCCCCCC` (stereo not drawn) [dec-1-en-3-ol] here?
**A.** The value was 69.5%.

**Q.** And the activation at 1000 µM ([2]; Table 1(d))?
**A.** The activation at 1000 µM was 90%.

**Q.** With `Cc1ccc(O)cc1` [p-Cresol] as the compound, how does the “A1V1 activation, % of agonist value” ([1]; Table 1(d), 1 mM) read?
**A.** Its value is 38.52%.

**Q.** And the activation at 1000 µM ([2]; Table 1(d))?
**A.** The activation at 1000 µM was 61%.

**Q.** `CC(=O)c1ccc(O)cc1` [p-Hydroxyacetophenone] was tested. Which “A1V1 activation, % of agonist value” ([1]; Table 1(c), 1 mM) did it give?
**A.** The value was 49.38%.

**Q.** What about the activation at 1000 µM ([2]; Table 1(c)) of the same compound?
**A.** Its activation at 1000 µM is 52.8%.

**Q.** Which “A1V1 activation, % of agonist value” ([1]; Table 1(e), 1 mM) does the source give for `C=C(C)C1CCC(C)C(=O)C1` (stereo not drawn) [p-Menth-8-en-2-one] here?
**A.** Its value is 59.5%.

**Q.** What about the activation at 1000 µM ([2]; Table 1(e)) of the same compound?
**A.** The activation at 1000 µM was 39.9%.

**Q.** Which “A1V1 activation, % of agonist value” ([1]; Table 1(e), 1 mM) does the source give for `CCCC(=O)OCc1ccc(OC)cc1` [p-Methoxybenzyl butyrate] here?
**A.** Its value is 58.97%.

**Q.** And the activation at 1000 µM ([2]; Table 1(e))?
**A.** Its activation at 1000 µM is 34%.

**Q.** Which “A1V1 activation, % of agonist value” ([1]; Table 1(d), 1 mM) does the source give for `CCC/C=C/COC(=O)CCC` [trans-2-Hexenyl butyrate] here?
**A.** Its value is 20%.

**Q.** What about the activation at 1000 µM ([2]; Table 1(d)) of the same compound?
**A.** Its activation at 1000 µM is 48.9%.

**Q.** With `CCCCC/C=C/C=O` [trans-2-Octanal] as the compound, how does the “A1V1 activation, % of agonist value” ([1]; Table 1(c), 1 mM) read?
**A.** Its value is 115%.

**Q.** What about the “A1 activation, % of agonist value” ([2]; Table 1(c)) of the same compound?
**A.** Its value is 112%.

**Q.** What does the source list for Bisabolene?
**A.** A1V1 activation, % of agonist value ([1]; Table 1(d), 1 mM): 46.2%; A1 activation, % of agonist value ([2]; Table 1(d)): 77%

**Q.** What does the source list for L-Ascorbic acid, calcium salt (2:1)?
**A.** A1V1 activation, % of agonist value ([1]; Table 1(c), 1 mM): 93.20%; A1 activation, % of agonist value ([2]; Table 1(c)): 88.00%

**Q.** Which results are given for Myrtenal?
**A.** A1V1 activation, % of agonist value ([1]; Table 1(c), 1 mM): 111.3%; A1 activation, % of agonist value ([2]; Table 1(c)): 95.8%
